Ends that are not written are not given here.
Assays:
[1] = system: cfos expression in INS1 cells; experiment: cfos expression after 1 h peptide treatment, INS1 cells (qRT-PCR); type: cell-based, rat; details: GLP-1 30 μM
Description: A feature of many known biologically active peptide hormones is the presence of an amidated C-terminus, which can be important for peptide bioactivity, as for gastrin-releasing peptide neuromedin-B, or for increased peptide stability, as for GLP-1. Therefore, the peptide library was constructed with an amide (NH2) group at the C-terminus as the only modification for comparative studies between peptides (FIG. 2a). In total, we generated a library of 100 peptides for functional biological screening. The peptide solubility was deduced according to its overall charge and reconstituted accordingly to optimal solubility. For all peptides, quality control by mass spectrometry was performed which validated the purity of the synthesized peptides for the primary screen according to their theoretical molecular weight (FIG. 8). Next, we functionally explored the potency of 100 of the peptides in activating cfos expression, a marker of cellular activity, after 1 hour of peptide treatment across two cell lines, Neuroscreen-1, NS-1 (rat neuronal origin) and INS1 cells (rat pancreatic origin) (FIG. 2b). […]
RNA expression analysis. […] Relative mRNA expression was determined by normalization with Ribosomalprotein S18 (Rsp18) levels using the ΔΔCt method. […]

[2] = fasting blood glucose in lean C57BL/6 mice after I.P. injection (no food); type: in vivo; details: fasted, peptides 5 mg/kg or GLP-1 2 mg/kg I.P.
Protocol: (§1) We next performed in vivo studies to determine whether any of these peptides affected food intake or blood glucose levels—two biological consequences of cfos activation. For acute food intake studies, lean, 8-week-old C57BL/6 mice (N=3/group) were fasted for 16 hours prior to administration of vehicle (saline), GLP-1 at 2 mg/kg, or FGF3_4, EDIL3_4, BRNP2_5, SCG1_9, FSTL4_3, and FGF5_5 peptides at 5 mg/kg. The food intake was then monitored over 6 hours.
(§2) For acute experiments, after overnight fasting for 16 hours, 8-week-old C57BL/6 mice were weighed and I.P. injected with either saline, GLP-1 at 2 mg/kg or peptides at 5 mg/kg (N=3 mice per group). Fasted blood glucose and food intake was then monitored for 6 hours.

[3] = metabolic cages (Columbus comprehensive lab animal monitoring system) after single injection; type: in vivo, mice
Protocol: To study the metabolic effects in more detail, we next used metabolic cages performed with a Columbus comprehensive lab animal monitoring system. C57BL6/J mice were acclimated to the cages and randomized into two groups, followed by an I.P. injection with either vehicle (saline) or 5 mg/kg BRP (N=4/group).
Food intake, energy expenditure and body composition measurements. Measurements of accumulated food intake and VO2 were performed using a Comprehensive Lab Animal Monitoring System at room temperature (20-22° C.) (Oxymax, Columbus Instruments) as previously described. Singly housed mice were acclimated in metabolic cages for at least 24 h before the start of experiment to minimize stress.

[4] = system: cfos expression in NS-1 cells; experiment: cfos expression after 1 h peptide treatment, NS-1 cells (qRT-PCR); type: cell-based, rat; details: for cfos activation, alanine substitutions in the BRP sequence: 100 μg/kg, fully active = >15-fold over vehicle
Description: A feature of many known biologically active peptide hormones is the presence of an amidated C-terminus, which can be important for peptide bioactivity, as for gastrin-releasing peptide neuromedin-B, or for increased peptide stability, as for GLP-1. Therefore, the peptide library was constructed with an amide (NH2) group at the C-terminus as the only modification for comparative studies between peptides (FIG. 2a). In total, we generated a library of 100 peptides for functional biological screening. The peptide solubility was deduced according to its overall charge and reconstituted accordingly to optimal solubility. For all peptides, quality control by mass spectrometry was performed which validated the purity of the synthesized peptides for the primary screen according to their theoretical molecular weight (FIG. 8). Next, we functionally explored the potency of 100 of the peptides in activating cfos expression, a marker of cellular activity, after 1 hour of peptide treatment across two cell lines, Neuroscreen-1, NS-1 (rat neuronal origin) and INS1 cells (rat pancreatic origin) (FIG. 2b). Glucagon-like peptide 1 (GLP-1^7-37), a 30-mer peptide ligand for the glucagon receptor family of G protein-coupled receptors in pancreatic 3-cells, was used as a positive control at 30 μM in INS1 cells. NGF (Nerve Growth Factor) was used as a positive control at 2 nM in NS-1 cells. Expectedly, we find that GLP-1^7-37 induces a ˜4-fold elevation of cfos expression in INS1 cells and NGF induces a ˜10-fold induction of cfos expression in NS-1 cells (FIG. 2b). Across the 100 tested peptides, 6 peptides, FGF34, EDIL3_4, BRNP2_5, SCG1_9, FSTL4_3, and FGF5_5 induced more than a >5-fold cfos expression across both cell lines compared with vehicle.
Cell culture. NS-1 rat neuronal cell line was cultured with RPMI 1640 medium (Gibco) supplemented with 10% FBS and 1% L-glutamine. INS-1 832/13 rat insulinoma cell line (#SCC207) was cultured with RPMI 1640 medium (Gibco) supplemented with 10% FBS, 1% L-glutamine, 10 mM HEPES, 1 mM NaPyruvate and 50 μM β-mercaptoethanol. For peptide activity assay, 3×10^5 NS-1 and INS1 cells were plated in 12 well-plates. The next day, cells were washed twice with warm PBS and starved in serum-free RPMI overnight. Indicated concentrations of NGF (2 nM) or GLP-1 (30 μM) or peptides (100 μg/ml) were added and incubated for 1 hr at 37° C. Cells were washed with PBS and RNA was isolated for cfos expression analysis.
RNA expression analysis. Total RNA was isolated using TRIzol (Thermo Fischer Scientific) and Rneasy mini kits (QIAGEN). RNA was reverse transcribed using the ABI high-capacity cDNA synthesis kit. For qRT-PCR analysis, cDNA, primers and SYBR-green fluorescent dye (ABI) was used. Relative mRNA expression was determined by normalization with Ribosomalprotein S18 (Rsp18) levels using the ΔΔCt method. The primer sequences used are […] and […] for Rsp18 and […] and […] for cfos.

[5] = acute food intake in fasted lean C57BL/6 mice after I.P. injection; type: in vivo; details: 5 mg/kg I.P., up to 6 hours
Protocol: as §1
Mouse studies. Animal experiments were performed per procedures approved by the Institutional Animal Care and Use Committee of the Stanford Animal Care and Use Committee (APLAC) protocol number #32982. C57BL/6J male mice were purchased from the Jackson Laboratory (#000664) and were used after 1 week of acclimatization after import into the facility. Unless otherwise stated, all mice were in good health and housed in a temperature-controlled (20-22° C.) room on a 12-hour light/dark cycle with ad lib access to food and water.
as §2

[6] = open-field assay 30 min after single injection; type: in vivo, mice; details: 5 mg/kg I.P., 30 min post-injection
Protocol: Open field assay. 8-week-old C57BL/6 mice were transferred to the open-field facility and housed for 7 days for habituation before the test. Mice were weighed and then I.P. injected with either saline or BRP peptide at 5 mg/kg (N=15 mice per group, […] solution diluted in saline, total injection volume 100 ul per mouse). 30 min post-injection, the open-field test was performed in an Open Field Activity Arena (Med Associates Inc., St. Albans, VT. Model ENV-515) mounted with three planes of infrared detectors and within a specially designed sound-attenuating chamber (Med Associates Inc., St. Albans, VT. MED-017M-027). The arena was 43 cm (L)×43 cm (W)×30 cm (H), and the sound-attenuating chamber was 74 cm (L)×60 cm (W)×60 cm (H). Each mouse was placed in the corner of the testing arena and allowed to explore the arena for 10 minutes while being tracked by an automated tracking system. Data was analyzed using software Activity Monitor Version 7.8. Parameters analyzed include distance moved and time spent in the periphery and center of the arena. The periphery was defined as the zone 5 cm away from the arena wall.

Row | Substance | cfos activation, alanine substitutions in the BRP sequence [4] | food intake, alanine substitutions compared with BRP [5] | other results
1 | GLP-1: 30-mer peptide ligand for the glucagon receptor family of GPCRs, positive control |  |  | elevation of cfos expression (positive control) [1]: ~4 fold; blood glucose [2]: lowered blood glucose; energy expenditure ([3]; single injection GLP-1 2 mg/kg): without affecting; food intake (metabolic cages) ([3]; single injection GLP-1 2 mg/kg): acutely suppresses; locomotor activity ([3]; single injection GLP-1 2 mg/kg): without affecting; meal size ([3]; single injection GLP-1 2 mg/kg): acutely suppresses
2 | NGF: Nerve Growth Factor, positive control in NS-1 cells [reference compound] |  |  | induction of cfos expression (positive control) ([4]; NGF 2 nM): ~10 fold
3 | THAILRRLFNLC [Ala substitution on residue 3] | important to retain full activity | reduced efficacy in lowering food intake | 
4 | THRALRRLFNLC [Ala substitution on residue 4] |  | reduced efficacy in lowering food intake | 
5 | THRIARRLFNLC [Ala substitution on residue 5] |  | reduced efficacy in lowering food intake | 
6 | THRILARLFNLC [Ala substitution on residue 6] |  | reduced efficacy in lowering food intake | 
7 | THRILRALFNLC [Ala substitution on residue 7] |  | improves the appetite-suppressing effect of BRP | 
8 | THRILRRAFNLC [Ala substitution on residue 8] | important to retain full activity | reduced efficacy in lowering food intake | 
9 | THRILRRLFALC [Ala substitution on residue 10] | important to retain full activity |  | 
10 | THRILRRLFNLA [Ala substitution on residue 12] | important to retain full activity | reduced efficacy in lowering food intake | 
11 | THRILRRLFNLC (listed as Homo sapiens) [non-amidated BRP] |  |  | cfos activity in words ([4]; 100 μg/ml): no activity
12 | THRILRRLFNLC-NH2 [BRP, THRILRRLFNLC] |  |  | ambulatory activity ([3]; single I.P. injection 5 mg/kg): does not alter; anxiety-like behavior (open field) [6]: does not affect anxiety-like behavior

Reference: patent US20260035409A1, “BRINP2-DERIVED PEPTIDE COMPOSITIONS FOR TREATING OBESITY AND WEIGHT MANAGEMENT” (The Board of Trustees of the Leland Stanford Junior …, priority 2022, published 2026)
